This passage reports EC50 and CC50 results from patent US12404289B2 (Gilead Sciences, Inc., priority 2020, dated 2025).

Common to all, as to type: cell-based
The test system of series [1] is SARS-CoV-2. The series is described as follows: SARS-CoV-2 antiviral assay (A549-hACE2, Nano luciferase). The conditions noted are these: Severe acute respiratory syndrome coronavirus 2, 48 h, A549-hACE2 cells, SARS-CoV2-Nano, MOI 0.025, 48 h.
The test system of series [2] is Respiratory syncytial virus (RSV) strain A2. Kind of series: RSV antiviral assay (HEp-2, 96 well). The following applies: human respiratory syncytial virus, HEp-2, 96 h, read-out: EC50-RSV-HEP-2-96, HEp-2 cells, RSV A2, MOI=4, 4 days, 96 well, CellTiter-Glo; Table 1. In general terms: ATP-based viability assays read luminescence as a measure of living cells.
The nature of series [3]: CC50 assay (cytopathology in HEp-2 cells). The following applies: human, HEp-2 cells, 4 days, CellTiter-Glo; Table 1; read-out: RSV CC50. How it is done:
The cytopathology of compounds in HEp-2 cells is determined in the following manner. HEp-2 cells are suspended in DMEM+GlutaMAX (supplemented with 10% FBS and 1% Penicillin/Streptomycin) and seeded into 96 well plates (3×10^3/well). After a 4-hour incubation at 37° C.+5% CO2, three-fold serial dilutions of compounds are added to each well using an HP D300e digital dispenser. The cells are then incubated for 4 days at 37° C. and 5% CO2. The final volume in each well is 200 μL. Untreated wells are included as controls for 100% cell viability, while compounds treated with 5 uM puromycin are included as controls for 0% viability. Following the incubation, 100 μL of culture supernatant is removed from each well and replaced with 100 μL of CellTiter-Glo reagent (Promega, Madison, WI, Cat #G7573). The plates are then rocked for 2 minutes followed by a 10-minute incubation at 25° C. Compound-induced cytopathic effect is then assessed by measuring luminescence signal using and Envision plate reader. Values are normalized to the untreated DMSO and puromycin-treated controls (as 100% and 0% viability, respectively) and data is fit using non-linear regression analysis using XLfit4. The CC50 value for each compound is then determined as the concentration reducing cell viability by 50%.

The test system of series [4] is Recombinant respiratory syncytial virus expressing the firefly luciferase protein (RSV-Fluc). Kind of series: microbe, parasite or virus in culture. The conditions noted are these: human respiratory syncytial virus, NHBE, 72 h, read-out: EC50 RSVFluc NHBE 96, NHBE cells, RSV-Fluc, MOI of 0.1, three days, 96 well; Table 4.
The test system of series [5] is Respiratory syncytial virus recombinant with luciferase (RSV-Luc5). The series is described as follows: microbe, parasite or virus in culture. The following applies: human respiratory syncytial virus, HEp-2, 72 h, read-out: EC50 RSVFluc-Hep2 384, HEp-2 cells, RSV-Luc5, MOI=0.5, 3 days, 384 well, One-Glo; Table 1.
The subject of series [6] is Respiratory syncytial virus (RSV) strain A2. The series is described as follows: Hep-2 RSV2 384-well assay (EC50-HEP2-384). The following applies: human respiratory syncytial virus, HEp-2, 96 h, HEp-2 cells, RSV A2, MOI=4, 4 days, Table 1.
Where [7] appears, read: Table 4, read-out: EC50 SARS CoV2.
Setting [8] is: Table 1, read-out: SARS-CoV-2 EC50.

Like-named read-outs stand apart in the source and are kept apart here.

Usually EC50 stands for the concentration giving half of the maximal effect. What is called CC50 is the concentration giving 50% cytotoxicity. As for `CCC(CC)COC(=O)[C@H](C)N[P@](=O)(OC[C@H]1O[C@@](C#N)(c2ccc3c(N)ncnn23)[C@H](OC(=O)C(C)C)[C@@H]1OC(=O)C(C)C)Oc1ccccc1` [Example 1, (2R,3R,4R,5R)-2-(4-aminopyrrolo[2,1-f][1,2,4]triazin-7-yl)-2-cyano-5-((((S)—(((S)-1-(2-ethylbutoxy)-1-oxopropan-2-yl)amino)(phenoxy)phosphoryl)oxy)methyl) tetrahydrofuran-3,4-diyl bis(2-methylpropanoate)], the EC50 in series [1] (setting [7]) came out at 338 nM; in series [2], 122 nM; in series [4] it was 6.56 nM. For the same compound, in series [3], the CC50 at 4 days stood at 5490 nM.

For `CCC(CC)COC(=O)[C@H](C)N[P@](=O)(OC[C@H]1O[C@@](C#N)(c2ccc3c(N)ncnn23)[C@H](OC(C)=O)[C@@H]1OC(C)=O)Oc1ccccc1` [Example 2, (2R,3R,4R,5R)-2-(4-aminopyrrolo[2,1-f][1,2,4]triazin-7-yl)-2-cyano-5-((((S)—(((S)-1-(2-ethylbutoxy)-1-oxopropan-2-yl)amino)(phenoxy)phosphoryl)oxy)methyl) tetrahydrofuran-3,4-diyl Diacetate], the EC50 in series [1] (setting [7]) came out at 102 nM; in series [2], 84.4 nM; in series [4], 4.53 nM. Besides, in series [3], the CC50 at 4 days is 8410 nM.

`CCC(=O)O[C@H]1[C@@H](OC(=O)CC)[C@](C#N)(c2ccc3c(N)ncnn23)O[C@@H]1CO[P@@](=O)(N[C@@H](C)C(=O)OCC(CC)CC)Oc1ccccc1` [Example 3, (2R,3R,4R,5R)-2-(4-aminopyrrolo[2,1-f][1,2,4]triazin-7-yl)-2-cyano-5-((((S)—(((S)-1-(2-ethylbutoxy)-1-oxopropan-2-yl)amino)(phenoxy)phosphoryl)oxy)methyl) tetrahydrofuran-3,4-diyl Dipropionate]: the EC50 in series [1] (setting [8]) turned out to be 113 nM; in series [1] (setting [7]), 129 nM; in series [5] it was 18.3 nM; in series [2], 44.1 nM; in series [4], 5.55 nM. In series [3], the CC50 at 4 days is 5820 nM.

As for `CCOC(=O)[C@H](C)NP(=O)(OC[C@H]1O[C@@](C#N)(c2ccc3c(N)ncnn23)[C@H](OC(=O)CC)[C@@H]1OC(=O)CC)Oc1ccccc1` (stereo partly drawn) [Example 11, (2R,3R,4R,5R)-2-(4-aminopyrrolo[2,1-f][1,2,4]triazin-7-yl)-2-cyano-5-((((((S)-1-ethoxy-1-oxopropan-2-yl)amino)(phenoxy)phosphoryl)oxy)methyl)tetrahydrofuran-3,4-diyl Dipropionate], the EC50 is 76.8 nM in series [1] (setting [8]), 208 nM in series [1] (setting [7]) and 67.2 nM in series [2]. In addition, the 50% cytotoxic concentration (CC50) at 4 days in series [3] came to 12800 nM.

As for `CCOC(=O)[C@H](C)NP(=O)(OC[C@H]1O[C@@](C#N)(c2ccc3c(N)ncnn23)[C@H](OC(C)=O)[C@@H]1OC(C)=O)Oc1ccccc1` (stereo partly drawn) [Example 12, (2R,3R,4R,5R)-2-(4-aminopyrrolo[2,1-f][1,2,4]triazin-7-yl)-2-cyano-5-((((((S)-1-ethoxy-1-oxopropan-2-yl)amino)(phenoxy)phosphoryl)oxy)methyl)tetrahydrofuran-3,4-diyl Diacetate], the EC50 in series [1] (setting [7]) is 139 nM; in series [2] it was 166 nM. Also, in series [3], the CC50 at 4 days worked out at 30900 nM.

For the compound `CCC(CC)COC(=O)[C@H](C)NP(=O)(OC[C@H]1O[C@@](C#N)(c2ccc3c(N)ncnn23)[C@H](OC(=O)C(C)C)[C@@H]1OC(=O)C(C)C)Oc1ccc(C(C)(C)C)cc1` (stereo partly shown) [Example 14], the half-maximal effective concentration (EC50) amounted to 186 nM in series [1] (setting [7]), 29 nM in series [2] and 3.72 nM in series [4]. The CC50 at 4 days in series [3] turned out to be 2730 nM.

On to `COC(=O)[C@H](C)NP(=O)(OC[C@H]1O[C@@](C#N)(c2ccc3c(N)ncnn23)[C@H](O)[C@@H]1O)Oc1ccc(C(C)(C)C)cc1` (stereo partly drawn) [Example 15, Methyl ((((2R,3S,4R,5R)-5-(4-aminopyrrolo[2,1-f][1,2,4]triazin-7-yl)-5-cyano-3,4-dihydroxytetrahydrofuran-2-yl)methoxy)(4-(tert-butyl)phenoxy)phosphoryl)-L-alaninate], for which the EC50 in series [1] (setting [7]) is 777 nM; in series [2] it was 185 nM. Also, the CC50 at 4 days in series [3] is 22900 nM.

`COC(=O)[C@H](C)NP(=O)(OC[C@H]1O[C@@](C#N)(c2ccc3c(N)ncnn23)[C@H](OC(=O)C(C)C)[C@@H]1OC(=O)C(C)C)Oc1ccc(C(C)(C)C)cc1` (stereo partly drawn) [Example 16, (2R,3R,4R,5R)-2-(4-aminopyrrolo[2,1-f][1,2,4]triazin-7-yl)-5-((((4-(tert-butyl)phenoxy)(((S)-1-methoxy-1-oxopropan-2-yl)amino)phosphoryl)oxy)methyl)-2-cyanotetrahydrofuran-3,4-diyl bis(2-methylpropanoate)]: the EC50 in series [1] (setting [8]) came to 83.8 nM; in series [1] (setting [7]), 199 nM; in series [2], 9.3 nM. Besides, the cytotoxic concentration (CC50) at 4 days in series [3] came to 2840 nM.

On to `CCOC(=O)[C@H](C)NP(=O)(OC[C@H]1O[C@@](C#N)(c2ccc3c(N)ncnn23)[C@H](O)[C@@H]1O)Oc1ccc(C(C)(C)C)cc1` (stereo partly drawn) [Example 17, Ethyl ((((2R,3S,4R,5R)-5-(4-aminopyrrolo[2,1-f][1,2,4]triazin-7-yl)-5-cyano-3,4-dihydroxytetrahydrofuran-2-yl)methoxy)(4-(tert-butyl)phenoxy)phosphoryl)-L-alaninate], for which the EC50 in series [1] (setting [7]) was determined as 850 nM; in series [2], 164 nM. Further, the CC50 at 4 days in series [3] stood at 20800 nM.

On to `CCOC(=O)[C@H](C)NP(=O)(OC[C@H]1O[C@@](C#N)(c2ccc3c(N)ncnn23)[C@H](OC(=O)C(C)C)[C@@H]1OC(=O)C(C)C)Oc1ccc(C(C)(C)C)cc1` (stereo partly drawn) [Example 18, (2R,3R,4R,5R)-2-(4-aminopyrrolo[2,1-f][1,2,4]triazin-7-yl)-5-((((4-(tert-butyl)phenoxy)(((S)-1-ethoxy-1-oxopropan-2-yl)amino)phosphoryl)oxy)methyl)-2-cyanotetrahydrofuran-3,4-diyl bis(2-methylpropanoate)], for which the concentration for a half-maximal effect (EC50) in series [1] (setting [7]) was found to be 210 nM; in series [6] it was 83.4 nM; in series [2], 7.75 nM; in series [4], 6.69 nM. Moreover, in series [3], the CC50 at 4 days was 2620 nM.

For `COC(C)(C)COC(=O)[C@H](C)NP(=O)(OC[C@H]1O[C@@](C#N)(c2ccc3c(N)ncnn23)[C@H](OC(=O)C(C)C)[C@@H]1OC(=O)C(C)C)Oc1ccccc1` (stereo partly drawn) [Example 25, (2R,3R,4R,5R)-2-(4-aminopyrrolo[2,1-f][1,2,4]triazin-7-yl)-2-cyano-5-((((((S)-1-(2-methoxy-2-methylpropoxy)-1-oxopropan-2-yl)amino)(phenoxy)phosphoryl)oxy)methyl)tetrahydrofuran-3,4-diyl bis(2-methylpropanoate)], the EC50 in series [1] (setting [8]) is 122 nM; in series [1] (setting [7]) it was 350 nM; in series [2], 11.1 nM. For the same compound, in series [3], the CC50 at 4 days was 4780 nM.

In the case of `CCC(CC)COC(=O)[C@H](C)N[P@](=O)(OC[C@H]1O[C@@](C#N)(c2ccc3c(=N)n(COP(=O)(O)O)cnn23)[C@H](O)[C@@H]1O)Oc1ccccc1` [Example 28, 2-Ethylbutyl ((S)-(((2R,3S,4R,5R)-5-cyano-3,4-dihydroxy-5-(4-imino-3-((phosphonooxy)methyl)-3,4-dihydropyrrolo[2,1-f][1,2,4]triazin-7-yl)tetrahydrofuran-2-yl)methoxy)(phenoxy)phosphoryl)-L-alaninate], the concentration for a half-maximal effect (EC50) in series [1] (setting [7]) turned out to be 1620 nM; in series [5] it was 21.5 nM; in series [2] it was 31 nM; in series [4], 35 nM. In addition, the CC50 at 4 days in series [3] amounted to 7450 nM.
